Key:
[1] = tested on: PC2 in the primary cilium; assay: Confocal microscopy of PC2 in cilia of kidney sections; format: in vivo, mouse; conditions: doxycycline plus VX-809 vs doxycycline plus DMSO
Method: (§1) To determine the location of PC2 in the cilia, confocal microscopy experiments using the Pkd1^fl/fl; Pax8^rtTA TetO-cre mouse model were conducted. These mice, when injected intraperitoneally (IP) with doxycycline on postnatal days (PND) 11, 12, and 13, developed multiple large cysts and large polycystic kidneys at approximately 3 weeks of age.
Mice were treated without doxycycline (NoDoxy), with doxycycline plus DMSO (Doxy), or with doxycycline plus VX809 (Doxy VX809), as indicated. PC2 staining is shown in red, acetylated (ac) αtubulin is shown in green, regions of colocalization of PC2 and ac-atubulin are shown in yellow. Scale bar is 10 μm. All pictures were taken with a 63× objective.
FIG. 21 is a graph of the percentage of cells with ciliary staining. Mice were treated without doxycycline (NoDoxy), with doxycycline plus DMSO (Doxy), or with doxycycline plus VX809 (Doxy VX809), as indicated, and kidney cells were analyzed. Pearson's coefficient was measured using at least 10 cells per image. Three animals were analyzed for each maneuver.
In normal mice PC2 is located in the primary cilium.

[2] = tested on: HSP27, HSP70 and HSP90 in PN cells; assay: Western blot of heat shock proteins in cells; format: cell-based, mouse; conditions: 10 μM, 16 h
Method: FIG. 8A, FIG. 8B, FIG. 8C, FIG. 8D, FIG. 8E, FIG. 8F, FIG. 8G, and FIG. 8H show chaperone expression is altered in PH and PN cells by VX-809. […] Western blot showing expression of HSP27, HSP70 and HSP90 in VX-809 treated or control PN cells. […] (FIG. 8E). Western blot of HSP27, HSP70 and HSP90 in PH vs. PN cells. […] Whereas, Hsp70 is higher in PH vs. PN cells. Data were analyzed by non-parametric t test. Experiment was repeated 4-5 times. Cells were grown in 10-cm culture dishes at permissive conditions (33° C.) with y-interferon in culture media. Cells were then transferred to non-permissive conditions at 37° C., y-interferon free culture media and evaluated at full confluence. At day four, cells were treated with VX-809 (10 μM) for 16 h and harvested on fifth day for assay. *P<0.05., **P<0.01, ***P<0.001, ****P<0.0001;
To facilitate their growth in the kidney, cysts have developed an altered network of proteins that most likely serves to protect them from stress . Next, it was determined whether VX-809 would alter the levels of Hsps in pkd−/− mice and in PN cells. […] Hsp 27, 70 and 90 are all elevated in cystic kidneys compared to normal controls. […] There is no change in Hsp40. […] Both sets of data are consistent with an alteration in the heat shock response to cyst growth.

[3] = tested on: Pkd1^fl/fl; Pax8^rtTA; TetO-cre mice; assay: Cyst growth and renal function in doxycycline-induced Pkd1 knockout mice; format: in vivo, mouse
Method: (FIG. 1A) Representative images of postnatal day (PND) 21 kidney sections from DMSO- and VX-809-treated mice. Significant reductions occurred in (FIG. 1B) cyst index, (FIG. 1C) kidney weight, and (FIG. 1D) kidney-to-body weight ratio. […] Methods: The total kidney area and total cystic area were measured with ImageJ (provided by NIH). Cystic index=100 X (total cystic area/total kidney area) and is expressed as a percentage. Columns represent means±standard error (SEM) for DMSO (vehicle)-treated (n=4-5) and VX-809 mice. *P<0.05; **P<0.01 (for all graphs). Statistical analysis was performed using an unpaired two-tailed Student's t-test;
When treated with doxycycline, these mice express Cre, causing knockout of PC1. […] Kidney weight (FIG. 1C) and kidney-to-body weight ratios (FIG. 1D) were also lower than those of the control mice. There was no difference in overall body weight (FIG. 1E) between the treated and untreated groups. […] The dosage of VX-809 injected was lower than the human pediatric dose, which is 500 mg of Lumacaftor per day; the adult dose is 800 mg/day.
Mouse strain and treatment. Pkd1^fl/fl; Pax8^rtTA; TetO-cre mice on a C57BL/6 background (61) were provided by the Baltimore PKD Center. Mice of both sexes were used in this study. Mice were injected IP with doxycycline (Sigma, #D9891) (4 μg of doxycycline/g body weight) on postnatal day 11 (PND11), PND12, and PND13 to produce very rapid and aggressive cyst growth. On PND21, the mice were euthanized.
as §1

[4] = 30 mg/kg IP daily PND10 to PND20, vs DMSO-treated mice
[5] = 30 mg/kg IP daily PND10 to PND20, vs control mice
[6] = injected daily PND10 to PND20, vs DMSO-treated mice

For `Cc1ccc(NC(=O)C2(c3ccc4c(c3)OC(F)(F)O4)CC2)nc1-c1cccc(C(=O)O)c1` [VX-809, lumacaftor], the “PC2 in the cilium” value [1] was “restores PC2 to the cilium”, the “colocalization of PC2 with the cilia marker ac-αtubulin” value [1] was “increases colocalization” and the Hsp27 expression [2] was “reduced expression”. For the same molecule, the Hsp70 expression [2] was “reduced expression”, the Hsp90 expression [2] was “reduced expression” and the overall body weight ([3]; 30 mg/kg IP daily PND10 to PND20, treated vs untreated) was “no difference”. The “blood urea nitrogen (BUN)” value [3, 4] was “lowered”, the creatinine [3, 4] was “lowered” and the “cyst growth (cyst index)” value [3, 4] was −60.4%. For the same molecule, the Kidney weight [3, 5] was “lower”, the kidney-to-body weight ratios [3, 5] was “lower” and the “cyst growth (in words)” value [3, 6] was “significantly less cyst growth”. The renal function [3, 6] was “improved renal function”.

From patent US20220133702A1, “CYSTIC FIBROSIS TRANSMEMBRANE CONDUCTANCE REGULATOR MODULATORS FOR TREATING AUTOSOMAL DOMINANT POLYCYSTIC KIDNEY DISEASE” (The Johns Hopkins University, priority 2020, published 2022)
